# Calls of active or inactive are those of the source. No cut-off for these calls is given here.
# How the values were obtained:
# [1] = molecular target: T1, Prostaglandin G/H synthase 2 (Homo sapiens, UniProt P35354); assay: Inhibition of COX2 (unknown origin) expressed in HEK293 TRex cells assessed as reduction in PGE2 production using arachidonic acid as substrate preincubated for 60 mins followed by substrate addition for 1 hr in presence of 10% FBS by RapidFire High-Throughput Mass Spectrometry; type: cell-based, HEK293-T-REx
# T1 sequence (P35354 whole entry): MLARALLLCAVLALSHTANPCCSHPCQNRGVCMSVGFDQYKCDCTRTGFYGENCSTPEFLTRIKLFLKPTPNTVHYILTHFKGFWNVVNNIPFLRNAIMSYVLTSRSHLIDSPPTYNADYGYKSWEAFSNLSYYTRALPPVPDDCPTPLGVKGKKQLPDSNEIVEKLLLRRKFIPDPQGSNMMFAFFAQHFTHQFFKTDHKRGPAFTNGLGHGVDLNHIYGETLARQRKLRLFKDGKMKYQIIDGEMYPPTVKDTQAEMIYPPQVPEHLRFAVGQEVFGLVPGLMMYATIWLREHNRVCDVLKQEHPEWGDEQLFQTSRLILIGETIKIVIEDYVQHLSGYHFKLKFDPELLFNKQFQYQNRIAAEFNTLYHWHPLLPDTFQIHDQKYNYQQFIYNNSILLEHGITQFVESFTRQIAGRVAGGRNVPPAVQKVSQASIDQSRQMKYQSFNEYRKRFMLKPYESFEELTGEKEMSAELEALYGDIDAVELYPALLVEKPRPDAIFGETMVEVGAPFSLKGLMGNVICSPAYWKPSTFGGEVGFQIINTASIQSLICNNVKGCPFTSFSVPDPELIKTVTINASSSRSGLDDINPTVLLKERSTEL
# [2] = molecular target: T2, Prostaglandin G/H synthase 1 (Homo sapiens, UniProt P23219); assay: Inhibition of human recombinant COX-1 assessed as reduction in peroxidase activity using arachidonic acid as substrate preincubated for 60 mins followed by substrate addition for 2 secs by ADPH based fluorometric analysis; type: ADME
# [3] = molecular target: T1, Prostaglandin G/H synthase 2; assay: Inhibition of human recombinant COX-2 assessed as reduction in peroxidase activity using arachidonic acid as substrate preincubated for 60 mins followed by substrate addition for 2 secs by ADPH based fluorometric analysis
# [4] = molecular target: T2, Prostaglandin G/H synthase 1; assay: Inhibition of COX1 (unknown origin) expressed in HEK293 TRex cells assessed as reduction in PGE2 production using arachidonic acid as substrate preincubated for 60 mins followed by substrate addition for 1 hr in presence of 10% FBS by RapidFire High-Throughput Mass Spectrometry; type: ADME, cell-based, HEK293-T-REx
# [5] = Drug concentration in C57BL/6J mouse colon at 10 mg/kg, po administered as cassette dose measured at 4 hrs by LC/MS/MS analysis; type: ADME, organism-based; settings: read-out: Ct
# [6] = Drug concentration in C57BL/6J mouse plasma at 10 mg/kg, po administered as cassette dose measured at 4 hrs by LC/MS/MS analysis; type: ADME, organism-based
# [7] = Ratio of drug concentration in C57BL/6J mouse colon to plasma at 10 mg/kg, po measured after 4 hr by liquid chromatographic triple-quadrupole mass spectrometric method; type: ADME, organism-based; settings: for Ratio: other tissue, 10 mg/kg, 4 h
# [8] = molecular target: T1, Prostaglandin G/H synthase 2; assay: Inhibition of human recombinant COX-2 using arachidonic acid as substrate preincubated for 60 mins followed by substrate addition for 2 secs by ADPH based fluorometric analysis
# [9] = molecular target: T1, Prostaglandin G/H synthase 2; assay: Inhibition of COX2 in human whole blood assessed as reduction in LPS stimulated PGE2 production incubated for 1 hr by ELISA; type: tissue-based
# [10] = molecular target: T2, Prostaglandin G/H synthase 1; assay: Inhibition of COX1 in human whole blood assessed as reduction in calcium ionophore-stimulated TXB2 production incubated for 1 hr by ELISA; type: tissue-based
# [11] = Protein binding in human plasma assessed as unbound fraction; type: ADME, cell-free
# [12] = Protein binding in human colon assessed as unbound fraction; type: ADME, tissue-based
# [13] = Equilibrium solubility of compound in FASSIF at pH 6.5; type: physicochemical
# [14] = Drug concentration in C57BL/6J mouse portal vein plasma at 10 mg/kg, po administered as cassette dose measured at 4 hrs by LC/MS/MS analysis; type: ADME, organism-based
# Mus musculus [15] = assay: Antitumor activity in C57BL/6J mouse model of spontaneous GI-tract tumor Apc-min assessed as reduction in total ileum polyp area at 300 mg/kg, po administered as suspension for 10 to 12 weeks; type: functional; settings: time 10-12 weeks, read-out: TGI
# Mus musculus [16] = assay: Antitumor activity in C57BL/6J mouse model of spontaneous GI-tract tumor Apc-min assessed as mouse survival at 100 mg/kg, po administered daily as suspension and measured at day 82 by Kaplan-Meier method; type: functional
# Homo sapiens = species on record: Homo sapiens; assay: Selectivity ratio of IC50 for COX1 in human whole blood assessed as reduction in calcium ionophore-stimulated TXB2 production to IC50 for COX2 in human whole blood assessed as reduction in LPS stimulated PGE2 production; type: tissue-based
# [17] = molecular target: T3, Prostaglandin G/H synthase 2 (Mus musculus, UniProt Q05769); assay: In vivo inhibition of COX2 in po dosed C57BL/6J mouse model of spontaneous GI-tract tumor Apc-min assessed as chemopreventive effect by measuring reduction in polyp area and relevant plasma exposures; type: functional, organism-based
# T3 sequence (Q05769 whole entry): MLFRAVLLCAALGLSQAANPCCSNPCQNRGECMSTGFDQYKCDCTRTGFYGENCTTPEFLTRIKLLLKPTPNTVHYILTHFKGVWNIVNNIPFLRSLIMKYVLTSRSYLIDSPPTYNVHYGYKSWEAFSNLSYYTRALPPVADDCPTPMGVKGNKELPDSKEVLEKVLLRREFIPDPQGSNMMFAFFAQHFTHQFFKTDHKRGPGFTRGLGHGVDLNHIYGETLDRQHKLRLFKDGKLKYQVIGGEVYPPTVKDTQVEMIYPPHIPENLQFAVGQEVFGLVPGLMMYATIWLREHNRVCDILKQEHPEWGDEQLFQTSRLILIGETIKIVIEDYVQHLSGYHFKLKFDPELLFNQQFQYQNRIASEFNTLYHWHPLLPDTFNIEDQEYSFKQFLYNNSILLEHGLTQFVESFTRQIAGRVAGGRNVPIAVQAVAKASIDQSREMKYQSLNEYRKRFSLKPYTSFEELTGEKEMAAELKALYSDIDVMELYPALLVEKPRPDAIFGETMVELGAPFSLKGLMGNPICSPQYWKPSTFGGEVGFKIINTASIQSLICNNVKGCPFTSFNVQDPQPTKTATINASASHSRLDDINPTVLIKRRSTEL
# [18] = molecular target: T3, Prostaglandin G/H synthase 2; assay: In vivo inhibition of COX2 in po dosed C57BL/6J mouse model of spontaneous GI-tract tumor Apc-min assessed as chemopreventive effect by measuring reduction in polyp area and relevant ileum exposures; type: functional, organism-based
# Mus musculus [19] = assay: Antitumor activity in C57BL/6J mouse model of spontaneous GI-tract tumor Apc-min assessed as reduction in total ileum polyp area at 30 to 300 mg/kg, po administered as suspension for 10 weeks; type: functional, organism-based; settings: dose 30-300 mg/kg
# Mus musculus [20] = assay: Antitumor activity in C57BL/6J mouse model of spontaneous GI-tract tumor Apc-min assessed as reduction in total ileum polyp number at 30 to 300 mg/kg, po administered as suspension for 10 weeks; type: functional, organism-based; settings: dose 30-300 mg/kg
# [21] = molecular target: T4, Prostaglandin G/H synthase 2 (Homo sapiens) (UniProt P35354)
# T4 sequence (whole entry): T1 sequence (P35354 whole entry)
# Description: Protein occupancy at human recombinant COX-2 assessed as dissociation half life
# in vivo = settings: C57BL/6J, mouse, colon / portal vein plasma, po, 10 mg/kg
# Description: Ratio of drug concentration in C57BL/6J mouse colon to portal vein plasma at 10 mg/kg, po measured after 4 hr by liquid chromatographic triple-quadrupole mass spectrometric method
# [22] = Half life in human liver microsomes; type: ADME, Microsome
# [23] = Half life in mouse liver microsomes; type: ADME, Microsome
# [24] = Half life in human hepatocytes; type: ADME, cell-based, Hepatocyte
# [25] = Half life in mouse hepatocytes; type: ADME, cell-based, Hepatocyte
# [26] = Volume of distribution at steady state in C57BL/6J mouse at 2 mg/kg, iv measured after 0.08 to 24 hrs; type: ADME, organism-based; settings: in vivo, 2 mg/kg, time 0.08-24 hrs
# [27] = Half life in C57BL/6J mouse at 2 mg/kg, iv measured after 0.08 to 24 hrs; type: ADME, organism-based; settings: in vivo, 2 mg/kg, time 0.08-24 hrs
# [28] = Tmax in C57BL/6J mouse at 10 mg/kg, po administered as cassette dose measured at 4 hrs by liquid chromatographic triple-quadrupole mass spectrometric method; type: ADME, organism-based; settings: in vivo
# [29] = Drug metabolism in human hepatocytes assessed as metabolic turnover at 10 uM incubated up to 2 hrs by LC/MS-MS analysis; type: ADME, cell-based, Hepatocyte; settings: read-out: Drug metabolism
# [30] = Drug metabolism in mouse hepatocytes assessed as metabolic turnover at 10 uM incubated up to 2 hrs by LC/MS-MS analysis; type: ADME, cell-based, Hepatocyte
# HEK293 = assay: Selectivity ratio of IC50 for COX1 (unknown origin) expressed in HEK293 TRex cells assessed as reduction in PGE2 production to IC50 for COX2 (unknown origin) expressed in HEK293 TRex cells assessed as reduction in PGE2 production; type: cell-based; settings: Homo sapiens
# [31] = Drug concentration in C57BL/6J mouse colon at 10 mg/kg, po administered as cassette dose measured at 2 hrs by liquid chromatographic triple-quadrupole mass spectrometric method; type: ADME, organism-based; settings: read-out: Ct
# Mus musculus [32] = assay: Chemo-protective activity in C57BL/6J mouse model of spontaneous GI-tract tumor Apc-min assessed as 18F-FDG uptake in ileum at 300 mg/kg, po incorporated into chow diet administered daily for 2 weeks and measured after 14 days by ex vivo PET imaging analysis relative to control; type: functional
# [33] = Oral bioavailability in C57BL/6J mouse at 10 mg/kg measured up to 24 hrs by LC-MS analysis; type: ADME, organism-based; settings: in vivo
# [34] = Oral bioavailability in Sprague Dawley rat at 10 mg/kg measured up to 24 hrs by LC-MS analysis; type: ADME, organism-based; settings: in vivo
# [35] = Oral bioavailability in Cynomolgus monkey at 10 mg/kg measured up to 24 hrs by LC-MS analysis; type: ADME, organism-based, Macaca fascicularis; settings: in vivo
# [36] = Oral bioavailability in dog at 10 mg/kg measured up to 24 hrs by LC-MS analysis; type: ADME, organism-based, Canis lupus familiaris; settings: in vivo
# Mus musculus [37] = assay: Antitumor activity in C57BL/6J mouse model of spontaneous GI-tract tumor Apc-min assessed as change in ileum polyp size at 30 to 300 mg/kg, po administered as suspension for 10 weeks; type: functional; settings: dose 30-300 mg/kg
# T2 sequence (P23219 whole entry): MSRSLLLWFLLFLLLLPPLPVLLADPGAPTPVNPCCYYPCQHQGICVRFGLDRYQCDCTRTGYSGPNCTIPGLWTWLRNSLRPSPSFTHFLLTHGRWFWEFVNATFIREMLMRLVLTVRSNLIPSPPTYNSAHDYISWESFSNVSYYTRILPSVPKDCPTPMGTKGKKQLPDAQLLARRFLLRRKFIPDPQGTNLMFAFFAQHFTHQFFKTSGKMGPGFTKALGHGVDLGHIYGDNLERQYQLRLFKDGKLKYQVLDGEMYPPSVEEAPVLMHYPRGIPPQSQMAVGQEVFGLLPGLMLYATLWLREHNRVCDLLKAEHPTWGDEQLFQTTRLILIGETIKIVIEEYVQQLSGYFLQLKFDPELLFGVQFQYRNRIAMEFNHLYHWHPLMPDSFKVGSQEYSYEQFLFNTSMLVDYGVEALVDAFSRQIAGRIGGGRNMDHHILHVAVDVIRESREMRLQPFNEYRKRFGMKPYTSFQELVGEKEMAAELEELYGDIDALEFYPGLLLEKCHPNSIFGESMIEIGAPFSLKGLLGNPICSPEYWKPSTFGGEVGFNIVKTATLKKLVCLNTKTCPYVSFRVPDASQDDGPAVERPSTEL
SMILES,IC50 [1],IC50 [2],IC50 [3],IC50 [4],concentration at 4 h [5],concentration at 4 h [6],Ratio [7],Ki [8],IC50 [9],IC50 [10],fraction unbound [11],fraction unbound [12],solubility thermodynamic [13],concentration at 4 h [14],inhibition in vivo at 300 mg/kg (Mus musculus [15]),Survival (Mus musculus [16]),IC50 [17],IC50 [18],T1/2 [21],Kp at 4 h (in vivo),further results
CC(C)(O)COc1nc(OCCCC(F)(F)F)c(CO)cc1-c1ccc(S(C)(=O)=O)cc1,78 nM,> 50 µM,360 nM,21.8 µM,16000 ng/g,3.8 ng/mL,4473,12 nM,345 nM,> 180 µM,0.011,0.204,111 µM,230 ng/mL,39.8%,62.5 days,1.9 nM,160 nM,27 h,77,Ratio (Homo sapiens): > 200; Activity (Mus musculus [19]): Active; Activity (Mus musculus [20]): Active
CCCCOc1nc(OCC(C)(C)O)c(-c2ccc(S(C)(=O)=O)cc2)cc1CO,47 nM,> 50 µM,226 nM,14.1 µM,4350 ng/g,3 ng/mL,,12 nM,346 nM,> 180 µM,0.009,0.025,66.5 µM,24.8 ng/mL,35.1%,,,,18 h,29.7,"half-life [22]: 27.8 min; half-life [23]: 2.7 min; half-life [24]: 2.4 min; t1/2 [25]: 1.9 min; Vdss [26]: 4.92 L/kg; t1/2 [27]: 13.8 min; Kp at 4 h ([7]; C57BL/6J, colon / plasma): 1620; Tmax [28]: 15 min; metabolised at 2 h, 10 µM [29]: 100%; Drug metabolism [30]: 79.6%; Ratio IC50 (HEK293): 300; concentration at 2 h [31]: 6510 ng/g; Activity (Mus musculus [32]): 48.9%; bioavailability [33]: 4.25%; bioavailability [34]: 1.5%; bioavailability [35]: 4.87%; bioavailability [36]: 74%; Ratio IC50 (Homo sapiens): > 200"
CC(C)(O)COc1nc(OCCC(F)(F)F)c(CO)cc1-c1ccc(S(C)(=O)=O)cc1,130 nM,> 50 µM,500 nM,0.13 µM,15500 ng/g,3.4 ng/mL,5264,32 nM,877 nM,181 µM,0.01,0.224,44.4 µM,179 ng/mL,48.7%,74 days,1.3 nM,742 nM,22 h,101,Activity (Mus musculus [32]): 48.6%; Ratio IC50 (Homo sapiens): > 200; Activity (Mus musculus [19]): Active; Activity (Mus musculus [20]): Active; Activity (Mus musculus [37]): >2 mm

# From ChEMBL document CHEMBL4808216, “Gut-Restricted Selective Cyclooxygenase-2 (COX-2) Inhibitors for Chemoprevention of Colorectal Cancer” (J Med Chem, 2021)
